Laboratory results reported in US20220354974A1, “REAGENTS AND METHODS FOR LABELING MOLECULES WITH ASTATINE ISOTOPES IN HIGHER OXIDATION STATES” (priority 2021, published 2022).

Assay: Stability in solution of 211At-labeling products of biotin-sarcosine-bis-B10 by radio-HPLC
Assay type: physicochemical
Procedure: FIGS. 22A-22D compare radio-HPLC chromatograms of reaction product from ^211At labeling of Compound 8 (see FIG. 21): 0.1 mg of Compound 8 was reacted with ^211At in 5% HOAc in MeOH/H2O without ChT at room temperature for 5 min (22A) and the reaction mixture sat at room temperature for about 1 h (22B); and 0.1 mg of Compound 8 was reacted with ^211At in 5% HOAc in MeOH/H2O with 10 μg of ChT at room temperature for 3 min. (22C) the reaction mixture after setting at room temperature for about 2 h (22D).
In an ^211At-labeling reaction with biotin-sarcosine-bis-B10, 8, a solution of [^211At]NaAt in 5% HOAc in MeOH/H2O was reacted at room temperature for 5 min without an oxidant. The reaction was quenched with 10 μL of 1 mg/mL Na2S2O5 (a reductant). The reaction provided one major ^211At labeled product (95%) as shown the radio-HPLC peak at about 10.1 min (FIG. 22A). […] In another ^211At-labeling reaction, the same reaction conditions as above were used except a chemical oxidant chloramine-T (ChT) was added to the reaction solution. The reaction with ChT provided multiple products that were eluted from 9-11 min. After sitting at room temperature for 2 h, a significant amount of free ^211At was observed (29%) (FIG. 22D).

free 211At observed (labeled with ChT, after sitting at room temperature for 2 h): 29% | change in 211At-labeled product in solution (labeled without oxidant, quenched, 1 h at room temperature): No change
Substance: 3,5-B10H9-dioxa-Ph-Sar-Biotin [Compound 8]
